What was measured:
[1] = tested on: T98 g cells; test: Cell viability assay (WST-1), SAR of AI compounds at inducing cell death; assay type: cell-based, human; conditions: Homo sapiens, T98G, 72 h
Method: Cells were plated media supplemented with 10% serum in 96-well plates (10^4 cells per wellI; 0.1 ml per well). Once they reached ˜70% confluence, they were rinsed with PBS and kept for an additional 24 his in media supplemented with 1% serum, at which time drugs or vehicle (DMSO, 0.1%, prepared in 10 μl serum-free media) were directly added to each well. After 3 days, cell viability was assessed using the Cell Proliferation Reagent WST-1 (Roche, Indianapolis, Ind.). Briefly, WST-1 reagent (10 μl) was added to each well for 3 hrs at 37° C. with 5% CO2 and WST-1 products were read at 450 nm using Packard SpectraCount™.
Because the strongest toxic effect of WIN55212-2 (ST-1) was measured in T98 g cells, these cells are used as readout to study the structure activity relationship (SAR) of AI compounds at inducing cell death. Table 2 provides the chemical structure, potency and efficacy of several AI compounds.

[2] = tested on: (HEK293 cells); test: [3H]-WIN55212-2 binding competition in HEK293 cells; design: species or system human; conditions: FIG. 2c
Method: Cells were grown to 90% confluence, rinsed twice with 1× PBS and stored at −80° C. until further use. To prepare crude cellular membrane fractions, dishes were removed from −80° C. and thawed at room temperature for 5 min. Once thawed, cells were lysed with ice-cold homogenization buffer (50 mM Tris, 1 mM EDTA, 3 mM MgCl2) and gently scraped from the dish. Total cell lysates from 3-5 dishes were collected on ice in 3 ml of ice-cold homogenization buffer Cells were homogenized at 6,500 rpm (PRO Scientific, Oxford, Conn.) twice for 10 sec and centrifuged at 11,500 rpm for 20 min at 4° C. Supernatants were discarded and cell pellets were resuspended in homogenization buffer and tris rated 10 times in ice-cold homogenization buffer. Crude cellular membrane homogenates were stored at −80° C. until further use. […]
Due to the lipophillic nature of the tested compounds, all experiments were performed in silanized glass test tubes (Alltech, Deerfield, Ill.) with silanized pipette tips (VWR Scientific, Brisbane, Calif.) to reduce the loss of ligands. […] For competition binding assays, specific binding was calculated by subtracting the average dpm (disintegrations per minute, dpm) if non-specific points from the individual dpm values for each total binding point and expressed as either fmol/mg for saturation analyses or as a percent of total radioligand binding in competition curves. […]

[3] = tested on: T98 g cells; test: Signaling pathway and cell death in T98 g cells; assay type: cell-based, human
Method: To determine the signaling pathway activated by AI receptors, T98 g cells were treated and changes in select kinase and mediatior of cell death were measured.

[4] = tested on: DBT cells; test: Killing of DBT mouse astrocytoma cells; assay type: cell-based; conditions: FIG. 10c
Source text: Cannabinoid receptors are known to regulate cell migration.

[5] = tested on: mouse microglia in primary culture; test: cAMP production in mouse microglia; assay type: cell-based

## CCn1c(C)c(C(=O)c2ccc(C)c3ccccc23)c2ccccc21 [ST-11]
[1]
  EC50: 1300 nM
[2]
  competition for [3H]-WIN55212-2 binding: competes
[3]; after 48 hrs
  cell death (cell number, nuclear fragmentation, cell blebbing): followed by cell death
[3]; within hours
  PARP cleavage: cleaves PARP
  activation of PLK-1: induces the activation of PLK-1
  caspase 3 activation: caspase 3 activation
[4]
  killing of DBT cells: kills DBT cells
[5]
  cAMP production stimulated by Isoproterenol: inhibits cAMP production
